From ChEMBL document CHEMBL1201862, “PubChem BioAssay data set” (2004)
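Cultured in 96-well plates, cells were exposed to test compound for 48 hours across five concentrations. At the GI50, growth is halved.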 Active and inactive are the calls of the source. Rule as the data show it: active = GI50 up to about 1.1 µM and inactive = higher.

Legend:
Assay in all cases: NCI anticancer screen, dose series, 48 h
[1] = test system: A549
[2] = test system: COLO 205
[3] = test system: DU-145
[4] = test system: HCC 2998
[5] = test system: HCT-15
[6] = test system: IGROV-1
[7] = test system: LOX IMVI
[8] = test system: MDA-MB-435
[9] = test system: MDA-N
[10] = test system: Malme-3M
[11] = test system: NCI-H226
[12] = test system: NCI-H23
[13] = test system: OVCAR-4
[14] = test system: OVCAR-5
[15] = test system: OVCAR-8
[16] = test system: SK-MEL-5
[17] = test system: SNB-75
[18] = test system: UACC-257
[19] = test system: SW-620

Row | Structure (SMILES) | GI50 [1] | GI50 [2] | GI50 [3] | GI50 [4] | GI50 [5] [µM] | GI50 [6] | GI50 [7] | GI50 [8] | GI50 [9] | GI50 [10] | GI50 [11] | GI50 [12] | GI50 [13] | GI50 [14] | GI50 [15] | GI50 [16] | GI50 [17] | GI50 [18] | GI50 [19]
1 | CC#CCCN(CC#N)Cc1ccccc1 | > 100 µM (inactive) | > 100 µM (inactive) | > 100 µM (inactive) | > 100 µM (inactive) | > 100 | > 100 µM (inactive) | > 100 µM (inactive) | > 100 µM (inactive) | > 100 µM (inactive) | > 100 µM (inactive) | > 100 µM (inactive) | > 100 µM (inactive) | > 100 µM (inactive) | > 100 µM (inactive) | > 100 µM (inactive) | > 100 µM (inactive) | > 100 µM (inactive) | > 100 µM (inactive) | 
2 | CCOC(=O)c1ccc(Nc2c3c(nc4ccccc24)CCCC3)cc1 | > 38.6 µM (inactive) | > 100 µM (inactive) | > 57.9 µM (inactive) | > 56.4 µM (inactive) | 7.13 | 4.91 µM (inactive) | > 21.2 µM (inactive) | 1.77 µM (inactive) | 1.76 µM (inactive) |  | > 100 µM (inactive) | > 47.9 µM (inactive) | 46.7 µM (inactive) | > 60 µM (inactive) | 44.7 µM (inactive) | > 42.5 µM (inactive) | 6.73 µM (inactive) | > 86.1 µM (inactive) | 4.2 µM (inactive)
3 | C=CC1(CC/C(=C\[N+](=O)[O-])c2ccc(OC)c(OC)c2)OCC(C)(C)CO1 | 23.3 µM (inactive) | 18 µM (inactive) | 16.7 µM (inactive) | 24.5 µM (inactive) | 12.7 |  | 12.8 µM (inactive) | 19.7 µM (inactive) | 21.8 µM (inactive) | 23.2 µM (inactive) | 16.4 µM (inactive) | 14.1 µM (inactive) | 11.6 µM (inactive) | 16.1 µM (inactive) | 15.2 µM (inactive) | 13.1 µM (inactive) |  | 10.2 µM (inactive) | 26.9 µM (inactive)
4 | CN(C)c1ccc(/C=C2\N=C(c3ccccc3)N(c3ccc4c(c3)Sc3cc(N5C(=O)/C(=C/c6ccc(N(C)C)cc6)N=C5c5ccccc5)ccc3N4)C2=O)cc1 | 22.1 µM (inactive) | > 100 µM (inactive) | 22.1 µM (inactive) | 19.6 µM (inactive) | 49.2 | 18.1 µM (inactive) | 19.5 µM (inactive) | 21.5 µM (inactive) | 53.8 µM (inactive) |  |  |  | 22.6 µM (inactive) | 18.8 µM (inactive) | 18.1 µM (inactive) | 17.9 µM (inactive) | 11.9 µM (inactive) | 19.7 µM (inactive) | 44.7 µM (inactive)
5 | O=C(Nc1ccccc1C(=O)O)/C(=C/c1ccccc1)NC(=O)c1ccccc1 | > 100 µM (inactive) | > 100 µM (inactive) | > 100 µM (inactive) | > 100 µM (inactive) | > 100 | > 100 µM (inactive) | > 100 µM (inactive) | > 100 µM (inactive) | > 100 µM (inactive) | > 100 µM (inactive) | > 100 µM (inactive) | > 100 µM (inactive) |  | > 100 µM (inactive) | > 100 µM (inactive) | > 100 µM (inactive) | > 100 µM (inactive) | > 100 µM (inactive) | > 100 µM (inactive)
6 | CC(C)(C)OC(=O)NC(CCC(=O)OCc1ccccc1)C(=O)NCCCO (centres undefined) | > 100 µM (inactive) |  | > 100 µM (inactive) | > 100 µM (inactive) | > 100 | > 100 µM (inactive) | > 100 µM (inactive) | > 100 µM (inactive) | > 100 µM (inactive) | > 100 µM (inactive) | > 100 µM (inactive) | > 100 µM (inactive) | > 100 µM (inactive) | > 100 µM (inactive) | > 100 µM (inactive) | > 100 µM (inactive) | > 100 µM (inactive) | > 100 µM (inactive) | > 100 µM (inactive)
7 | C=CC(Br)(CBr)CCC(Br)C(C)(C)Cl (centres undefined) | 11.5 µM (inactive) | 2.21 µM (inactive) | 3.37 µM (inactive) | 6.22 µM (inactive) | 2.58 | 5.31 µM (inactive) |  | 2.3 µM (inactive) | 3.09 µM (inactive) | 6.27 µM (inactive) | 25.3 µM (inactive) | 6.31 µM (inactive) | 4.08 µM (inactive) | 7.11 µM (inactive) | 4.42 µM (inactive) | 7.76 µM (inactive) | 2.71 µM (inactive) | 3.87 µM (inactive) | 2.05 µM (inactive)
8 | O=C(C/N=C(\CN(c1ccccc1)c1ccccc1)Oc1c(Cl)cc(Cl)cc1Cl)n1cnc2ccccc21 | > 100 µM (inactive) | > 100 µM (inactive) | > 100 µM (inactive) | 71.6 µM (inactive) | 43.8 | 39.6 µM (inactive) |  | 76.6 µM (inactive) | 59.8 µM (inactive) | 52.6 µM (inactive) | 19.5 µM (inactive) | > 100 µM (inactive) | > 100 µM (inactive) | 28 µM (inactive) | 35.3 µM (inactive) | 76 µM (inactive) | > 100 µM (inactive) | > 100 µM (inactive) | 81.7 µM (inactive)
9 | Clc1cc2c(cc1Cl)CC(NCCN1CCCC1)CC2 (centres undefined) | 14.8 µM (inactive) | 3.07 µM (inactive) | 14.7 µM (inactive) | 2.7 µM (inactive) | 12.9 | 15.4 µM (inactive) | 13.3 µM (inactive) | 3.73 µM (inactive) | 3.85 µM (inactive) | 10.8 µM (inactive) | 15.2 µM (inactive) | 16 µM (inactive) | 17.2 µM (inactive) | 14.6 µM (inactive) | 16.7 µM (inactive) | 3.74 µM (inactive) |  | 7.82 µM (inactive) | 18.9 µM (inactive)
10 | CN1CC(S(=O)(=O)c2ccccc2)CC(S(=O)(=O)c2ccccc2)C1c1ccccc1 (centres undefined) | 32.7 µM (inactive) | 13.6 µM (inactive) | 18 µM (inactive) | 15.9 µM (inactive) | 12.4 | 25.9 µM (inactive) | 11.7 µM (inactive) | 10.9 µM (inactive) | 11.6 µM (inactive) | 13.6 µM (inactive) | 21.2 µM (inactive) |  | 12 µM (inactive) | 15.2 µM (inactive) | 28.7 µM (inactive) | 14.6 µM (inactive) |  | 15 µM (inactive) | 8.3 µM (inactive)
11 | NCCNCCCNC(=O)c1cc(-c2ccccc2)nc2ccccc12 | 41.6 µM (inactive) | 16.2 µM (inactive) | > 100 µM (inactive) | 19.6 µM (inactive) | > 100 | > 100 µM (inactive) | 28.3 µM (inactive) | 20.8 µM (inactive) | 25.5 µM (inactive) | 16.8 µM (inactive) | > 100 µM (inactive) | 30.6 µM (inactive) |  | 46.3 µM (inactive) | 85.5 µM (inactive) | 15.6 µM (inactive) | > 10 µM (inactive) | 24.1 µM (inactive) | 34 µM (inactive)
12 | O=c1c2cc(I)ccc2nc(SCc2nnco2)n1Cc1ccccc1 | > 100 µM (inactive) | > 100 µM (inactive) | > 100 µM (inactive) | 96.2 µM (inactive) | > 100 | 80.7 µM (inactive) | > 100 µM (inactive) | > 100 µM (inactive) | > 100 µM (inactive) |  | > 100 µM (inactive) | > 100 µM (inactive) | > 100 µM (inactive) | > 100 µM (inactive) | > 100 µM (inactive) | > 100 µM (inactive) | 56.5 µM (inactive) | > 100 µM (inactive) | > 100 µM (inactive)
13 | Cc1ccc(OP(=O)(Oc2ccc(C)cc2)N2C=Cc3ccccc3C2C#N)cc1 (centres undefined) | > 100 µM (inactive) | > 100 µM (inactive) | > 100 µM (inactive) |  | > 100 | > 100 µM (inactive) | > 100 µM (inactive) | > 100 µM (inactive) | > 100 µM (inactive) | 82.8 µM (inactive) | > 100 µM (inactive) | > 100 µM (inactive) | > 100 µM (inactive) | > 100 µM (inactive) | > 100 µM (inactive) | > 100 µM (inactive) | > 100 µM (inactive) | > 100 µM (inactive) | > 100 µM (inactive)
14 | Nc1nc(N)c2ncn(-c3ccc(Cl)cc3)c2n1 | 37 µM (inactive) | 75.5 µM (inactive) | 25 µM (inactive) | 30.2 µM (inactive) | 24.8 | 6.97 µM (inactive) | 36.6 µM (inactive) | 87.3 µM (inactive) | 89.1 µM (inactive) | 28.4 µM (inactive) | 39.1 µM (inactive) | 61 µM (inactive) | 80.5 µM (inactive) | 16.7 µM (inactive) | 30.1 µM (inactive) | 23.6 µM (inactive) | 10.1 µM (inactive) | > 100 µM (inactive) | 
15 | COc1ccc2oc(=N)c(C(N)=S)cc2c1 | 32.1 µM (inactive) | 29.8 µM (inactive) | 27.2 µM (inactive) | 17.3 µM (inactive) | 17.5 | 29.6 µM (inactive) | 15.4 µM (inactive) | 25.1 µM (inactive) | 21.1 µM (inactive) | 14.1 µM (inactive) | 19.9 µM (inactive) |  | 31.9 µM (inactive) | 29.9 µM (inactive) | 18.2 µM (inactive) | 13.6 µM (inactive) | 24.9 µM (inactive) | 26.9 µM (inactive) | 25.5 µM (inactive)
16 | O=C(O)c1cc(O)c2c(c1)Cc1cccc(O)c1C2=O | 31.4 µM (inactive) | 24.2 µM (inactive) | 36.5 µM (inactive) | 41.4 µM (inactive) | 17.2 | > 10 µM (inactive) |  | 33.6 µM (inactive) | > 10 µM (inactive) | 19.7 µM (inactive) | 24.1 µM (inactive) | 28.1 µM (inactive) | 38 µM (inactive) | 29.9 µM (inactive) | 21.3 µM (inactive) | 21.1 µM (inactive) | 14.1 µM (inactive) | 26.7 µM (inactive) | 38.5 µM (inactive)
